Data: PMC9508125, “The evolutionary advantage of an aromatic clamp in plant family 3 glycoside exo-hydrolases” (Nature Communications, 2022)
Positions count from the first letter of the chain named.

How the values were obtained:
[1] = target: T1, HvExoI W286Y mutant (Hordeum vulgare, UniProt Q9XEI3, W311Y); experiment: Steady-state apparent kinetic constants with substrates; type: biochemical; details: substance is the substrate
T1 sequence (Q9XEI3 26-630 W311Y): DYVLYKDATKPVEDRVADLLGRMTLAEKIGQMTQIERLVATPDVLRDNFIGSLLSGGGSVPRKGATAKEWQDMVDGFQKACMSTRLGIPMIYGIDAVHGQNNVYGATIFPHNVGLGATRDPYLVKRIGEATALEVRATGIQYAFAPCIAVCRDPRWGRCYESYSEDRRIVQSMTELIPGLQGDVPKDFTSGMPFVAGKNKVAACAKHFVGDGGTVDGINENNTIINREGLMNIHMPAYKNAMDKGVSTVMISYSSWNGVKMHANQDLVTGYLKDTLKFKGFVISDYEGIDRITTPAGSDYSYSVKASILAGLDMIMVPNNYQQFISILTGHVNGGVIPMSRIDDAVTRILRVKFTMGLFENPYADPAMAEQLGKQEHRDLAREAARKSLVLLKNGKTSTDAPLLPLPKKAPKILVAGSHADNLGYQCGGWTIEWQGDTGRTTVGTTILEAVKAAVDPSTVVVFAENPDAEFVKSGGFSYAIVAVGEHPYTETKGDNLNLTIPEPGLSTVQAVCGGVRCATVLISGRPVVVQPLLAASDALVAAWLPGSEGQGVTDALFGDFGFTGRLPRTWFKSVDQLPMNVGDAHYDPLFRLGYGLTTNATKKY
Protocol: (§1) Dependency of activities of WT and mutant HvExoI on pH (McIlvaine buffers in the pH range of 3.5–8.5 at 30 °C) and temperature (100 mM sodium acetate buffer, pH 5.25, temperature range 0–80 °C, 15 min incubations) were determined using 0.2% (w/v) 4NP-Glc[21],[59]. Relative rates of hydrolysis of β-linked poly-, oligosaccharides, and aryl-glucosides were determined using near-homogenous HvExoI at 50 pmoles. […] Kinetic parameters were calculated from the analyses of Michaelis-Menten plots with Grafit 7.0.3[62] and processed by a proportional weighted fit, using nonlinear regression. The relative rates of hydrolysis, kinetic, and inhibition data were rounded to one or two decimal points (Supplementary Tables 2–4).

[2] = target: T2, HvExoI W434H mutant (Hordeum vulgare, UniProt Q9XEI3, W459H); experiment: as above; type: biochemical; details: substance is the substrate
T2 sequence (Q9XEI3 26-630 W459H): T1 sequence (Q9XEI3 26-630 W311Y) with Y286W, W434H
Protocol: as §1

Work on laminarin yielded a Km [1] of 100 ± 10 µM, a kcat [1] of 30.3 ± 2.4 s⁻¹ and a Km [2] of 300 ± 20 µM. For the same substance, the kcat [2] was 8.5 ± 0.9 s⁻¹.
